Experimental findings from USRE47740E1, “Aminopyridinecarboxamides as CXCR2 modulators” (Syntrix Biosystems Inc., priority 2010, dated 2019) are described below.

Molecules are shown by their SMILES. Read-outs that look alike come from different tables or passages of the source.

In general, IC50 refers to the concentration needed to halve the response being measured.

The target in the test is CXCR2 (Homo sapiens (Human), UniProt P25025). Kind of test: Inhibition of CXCR2-mediated (GROα-induced) intracellular calcium release in human neutrophils (whole cell assay, Pharmacology Example 1). The format is cell-based. The settings on record: GROα 25 nM. The protocol: Briefly, human neutrophils were suspended in HBSS^− (without Ca^2+ and Mg^2+) containing 10 mM HEPES and FLIPR Calcium 3 dye (3.1×10^7 cells in total volume 1.7 mL). Cells were aliquoted (200 μL of the cell suspension per tube, 8 tubes total) and 2 μL of compound 9 (with appropriate dilutions) were added to each of 6 tubes. The tested concentrations of compound 9 were 156 nM, 312 nM, 625 nM, 1250 nM, 2500 nM and 5000 nM. As controls, 2 μL of DMSO (1% final concentration) were added to 2 other tubes. Cells were incubated for 30 min at 37° C. After dye loading, tubes were centrifuged at 6,000 rpm for 1 min, supernatant was removed and the cell pellet was re-suspended in 200 μL of HBSS^+ (with Ca^2+ and Mg^2+) containing 10 mM HEPES. The test compound or DMSO (control) was added again at the same concentrations that were used during cell loading. The cell suspension was aliquoted into a 96-well Reading Plate (Corning) in a volume of 90 μL (10^5 cells/well). The Compound Plate contained agonist (GROα in HBSS^−) or HBSS^− (control). After 15 sec of reading the basal level of fluorescence by FlexStation II, 10 μL of GROα or HBSS^− were automatically transferred from the Compound Plate into the Reading Plate (final concentration of GROα was 25 nM). Changes in fluorescence were monitored (λex=485 nm, λem=525 nm) every 5 s for 240 to 500 s at room temperature.
CXCR2, sequence (P25025 whole entry): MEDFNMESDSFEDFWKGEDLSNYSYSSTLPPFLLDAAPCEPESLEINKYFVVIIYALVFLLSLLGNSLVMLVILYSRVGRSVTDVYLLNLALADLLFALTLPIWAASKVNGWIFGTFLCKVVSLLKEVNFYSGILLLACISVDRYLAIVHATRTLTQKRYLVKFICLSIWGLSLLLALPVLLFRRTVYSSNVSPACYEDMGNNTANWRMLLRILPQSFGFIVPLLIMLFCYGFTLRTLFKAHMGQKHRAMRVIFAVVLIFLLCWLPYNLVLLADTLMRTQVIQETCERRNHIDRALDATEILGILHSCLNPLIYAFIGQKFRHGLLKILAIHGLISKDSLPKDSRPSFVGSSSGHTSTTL
The maximum change in fluorescence, expressed in arbitrary units over baseline (Max-Min), was used to determine the GROα response. The effect of each compound on the GROα response was normalized and expressed as a percent of the DMSO control, which was designated as “100% response.” Curve fitting and calculation of the compound inhibitory concentration that reduces the level of the GROα response by 50% (IC50), or the compound agonist concentration that increases the level of the calcium release by 50% of the maximum agonist-induced change (EC50) were determined by nonlinear regression analysis of the dose-response curves generated using Prism 4 (GraphPad Software, Inc., San Diego, Calif.).
In general terms: A change in cytosolic calcium serves as a functional read-out for many receptors and channels.

[1] abbreviates: FLIPR Calcium 3 dye, read-out: Inhibition of CXCR2 IC50.
Setting [2] is: value in synthesis example, read-out: IC50 in whole cell assay (Pharmacology Example 1).

Regarding `CN(Cc1ccc(B(O)O)cc1)c1ncc(C(=O)Nc2ccc(F)cc2)cn1` [Compound 19], the IC50 reads like this: under setting [1], 0.244 ± 0.15 µM; under setting [2], 0.244 ± 0.015 µM.

Turning to `CN(Cc1ccccc1O)c1ccc(C(=O)Nc2ccc(F)cc2)cn1` [Compound 9], the IC50 is, setting by setting: under setting [1], 0.586 ± 0.91 µM; (read-out: IC50, inhibition of CXCR2-mediated intracellular calcium release) 0.586 ± 0.091 µM; under setting [2], 0.59 ± 0.09 µM.

Turning to `CN(Cc1ccccc1B(O)O)c1ccc(C(=O)Nc2ccc(F)cc2)cn1` [Compound 8], the IC50 reads like this: under setting [1], 1 ± 0.2 µM; under setting [2], 3.7 ± 0.6 µM.

Turning to `CN(Cc1ccc(B(O)O)cc1)c1ccc(C(=O)Nc2ccc(F)cc2)cn1` [Compound 18], the IC50 under setting [1] is 0.247 ± 0.35 µM and the IC50 under setting [2] is 0.247 ± 0.035 µM.

With `O=C(Nc1ccc(F)cc1)c1ccc(NCc2ccccc2B(O)O)nc1` [Compound 10], the IC50 by setting is: under setting [1], 1.7 ± 0.2 µM; under setting [2], 1.7 ± 0.2 µM.
